The target in one assay is T1, PDK1 kinase (Homo sapiens, UniProt O15530).
T1 sequence (O15530 1-556): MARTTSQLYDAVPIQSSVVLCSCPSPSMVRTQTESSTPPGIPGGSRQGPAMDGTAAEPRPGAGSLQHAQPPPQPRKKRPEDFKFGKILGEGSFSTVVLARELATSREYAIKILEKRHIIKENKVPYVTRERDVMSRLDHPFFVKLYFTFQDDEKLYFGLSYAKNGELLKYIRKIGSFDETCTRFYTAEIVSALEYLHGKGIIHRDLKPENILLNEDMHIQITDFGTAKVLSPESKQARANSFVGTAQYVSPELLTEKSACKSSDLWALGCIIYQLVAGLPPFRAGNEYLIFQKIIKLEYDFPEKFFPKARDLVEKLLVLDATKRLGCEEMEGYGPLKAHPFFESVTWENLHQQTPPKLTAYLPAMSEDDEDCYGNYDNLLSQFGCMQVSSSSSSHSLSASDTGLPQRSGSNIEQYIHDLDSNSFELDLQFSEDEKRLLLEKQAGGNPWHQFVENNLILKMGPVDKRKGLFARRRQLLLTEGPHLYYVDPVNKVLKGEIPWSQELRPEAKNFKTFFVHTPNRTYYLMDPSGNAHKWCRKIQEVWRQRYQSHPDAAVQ
Kind of assay: PDK1 Kinase Alpha Screen Assay. Format: biochemical. The following applies: PDK1 Kinase Alpha Screen Assay; read-out: PDK1 IC50. A digest of the protocol: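 Biotinylated PDK1-4 peptide (50 nM) phosphorylated by PDK1 with 10 uM ATP in pH 7.5 Tris/MgCl2/DTT buffer, 2.5% DMSO, for 3-18 hours. EDTA stop, then AlphaScreen detection with phospho-(Ser/Thr) PKA substrate antibody and protein A/streptavidin beads after overnight room-temperature development.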

Another assay deals with PC-3 cells. Kind of assay: Cell Proliferation Assay (Cell Titer Glo), PC-3 cell line. Type of assay: cell-based. As to conditions: Homo sapiens, PC-3, Cell Proliferation Assay, PC3; read-out: CPEC50 PC3. In outline: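 PC-3 cells, 1000 cells/well, left to adhere 3-5 h, then exposed for 3 days at 37° C to compounds as 1:3 serial dilutions from 500× DMSO stocks diluted in growth medium. Medium then replaced with fresh medium and viability read by Cell Titer Glo luminescence.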
A general note: Cellular ATP, detected with luciferase, serves as a proxy for viable cell number.

`CC(C)N1CCC(Oc2cccc3cnc(Nc4ccccc4F)nc23)CC1` [Compound 532, N-(2-fluorophenyl)-8-(1-isopropylpiperidin-4-yloxy)quinazolin-2-amine]: the IC50 (in general, the midpoint of a concentration-inhibition curve) at PDK1 kinase lay in the range of 5 to 10 µM. In the assay with PC-3 cells, the EC50 was 5 to 10 µM.
As for `CC(C)N1CCC(Oc2cccc3cnc(Nc4cc(F)cc(F)c4)nc23)CC1` [Compound 533, N-(3,5-difluorophenyl)-8-(1-isopropylpiperidin-4-yloxy)quinazolin-2-amine], the IC50 on PDK1 kinase was < 5 µM. Further, the EC50 in the assay with PC-3 cells was < 5 µM.
For the molecule `CC(C)N1CCC(Oc2cccc3cnc(Nc4ccccc4)nc23)CC1` [Compound 534, 8-(1-isopropylpiperidin-4-yloxy)-N-phenylquinazolin-2-amine], the IC50 on PDK1 kinase was < 5 µM. For the same molecule, the EC50 in the assay on PC-3 cells was < 5 µM.
In the case of `COc1ccc(Nc2ncc3cccc(OC4CCN(C(C)C)CC4)c3n2)cc1` [Compound 535, 8-(1-isopropylpiperidin-4-yloxy)-N-(4-methoxyphenyl)quinazolin-2-amine], the IC50 on PDK1 kinase is < 5 µM. Further, in the assay with PC-3 cells, the EC50 lay in the range of 5 to 10 µM.
For `CC(C)N1CCC(Oc2cccc3cnc(Nc4ccc(C#N)cc4)nc23)CC1` [Compound 536, 4-(8-(1-isopropylpiperidin-4-yloxy)quinazolin-2-ylamino)benzonitrile], the IC50 on PDK1 kinase is < 5 µM. Also, the EC50 with PC-3 cells is < 5 µM.
On to `CC(C)N1CCC(Oc2cccc3cnc(Nc4ccc(C(=O)N5CCOCC5)cc4)nc23)CC1` [Compound 537, (4-(8-(1-isopropylpiperidin-4-yloxy)quinazolin-2-ylamino)phenyl)(morpholino)methanone], for which the IC50 on PDK1 kinase was < 5 µM. Besides, the EC50 in the assay with PC-3 cells fell in the range of 5 to 10 µM.
Regarding `O=C(c1ccc(Nc2ncc3cccc(OC4CCNCC4)c3n2)cc1)N1CCOCC1` [Compound 538, morpholino(4-(8-(piperidin-4-yloxy)quinazolin-2-ylamino)phenyl)methanone], on PDK1 kinase, the half-inhibitory concentration (IC50) was < 5 µM. The EC50 in the assay on PC-3 cells was < 5 µM.
Consider `CC(=O)N1CCC(Oc2cccc3cnc(Nc4ccc(S(N)(=O)=O)cc4)nc23)CC1` [Compound 539, 4-(8-(1-acetylpiperidin-4-yloxy)quinazolin-2-ylamino)benzenesulfonamide], for which, at PDK1 kinase, the IC50 is < 5 µM. Also, the EC50 with PC-3 cells was < 5 µM.
With `CS(=O)(=O)N1CCC(Oc2cccc3cnc(Nc4ccc(S(N)(=O)=O)cc4)nc23)CC1` [Compound 540, 4-(8-(1-(methylsulfonyl)piperidin-4-yloxy)quinazolin-2-ylamino)benzenesulfonamide], on PDK1 kinase, the IC50 is < 5 µM. Besides, in the assay with PC-3 cells, the EC50 is < 5 µM.
`c1cc(Nc2ncc3cccc(OC4CCNCC4)c3n2)cc(N2CCOCC2)c1` [Compound 545, N-(3-morpholinophenyl)-8-(piperidin-4-yloxy)quinazolin-2-amine]: the IC50 at PDK1 kinase is < 5 µM. In the assay on PC-3 cells, the EC50 is < 5 µM.
On to `c1cc(OC2CCNCC2)c2nc(Nc3ccc(N4CCOCC4)cc3)ncc2c1` [Compound 546, N-(4-morpholinophenyl)-8-(piperidin-4-yloxy)quinazolin-2-amine], for which the 50% inhibitory concentration (IC50) on PDK1 kinase is < 5 µM. In addition, in the assay on PC-3 cells, the EC50 was < 5 µM.
`COc1ccc(NC(C)=O)cc1Nc1ncc2cccc(OC3CCNCC3)c2n1` [Compound 547, N-(4-methoxy-3-(8-(piperidin-4-yloxy)quinazolin-2-ylamino)phenyl)acetamide]: the IC50 on PDK1 kinase lay in the range of 5 to 10 µM. Also, in the assay with PC-3 cells, the EC50 was 5 to 10 µM.
`CN1CCN(c2ccc(Nc3ncc4cccc(OC5CCNCC5)c4n3)cc2)CC1` [Compound 548, N-(4-(4-methylpiperazin-1-yl)phenyl)-8-(piperidin-4-yloxy)quinazolin-2-amine]: at PDK1 kinase, the IC50 was < 5 µM. Besides, the EC50 in the assay with PC-3 cells is < 5 µM.
With `CNS(=O)(=O)c1ccc(Nc2ncc3ccc(O)c(C4CCN(C(C)C)CC4)c3n2)cc1` [Compound 549], on PDK1 kinase, the IC50 was < 5 µM. Besides, the EC50 in the assay with PC-3 cells is < 5 µM.
As for `c1cc(Nc2ncc3cccc(OC4CCNCC4)c3n2)cc(N2CCCC2)c1` [Compound 550, 8-(piperidin-4-yloxy)-N-(3-(pyrrolidin-1-yl)phenyl)quinazolin-2-amine], the IC50 on PDK1 kinase is < 5 µM. Besides, the EC50 in the assay with PC-3 cells was 5 to 10 µM.
Taken in the same sequence, the figures for `CC(C)N1CCC(Oc2cccc3cnc(Nc4cccc(N5CCCC5)c4)nc23)CC1` [Compound 551, 8-(1-isopropylpiperidin-4-yloxy)-N-(3-(pyrrolidin-1-yl)phenyl)quinazolin-2-amine] were < 5 µM and 5 to 10 µM.
Taken in the same sequence, the figures for `CC(C)N1CCC(Oc2cccc3cnc(N4CCN(c5ccc(N)cc5)CC4)nc23)CC1` [Compound 552, 4-(4-(8-(1-isopropylpiperidin-4-yloxy)quinazolin-2-yl)piperazin-1-yl)aniline] were 10 to 25 µM and 5 to 10 µM.
For `CC(C)N1CCC(Oc2cc(-c3nccs3)cc3cnc(Nc4ccc(N5CCOCC5)cc4)nc23)CC1` [Compound 553, 8-(1-isopropylpiperidin-4-yloxy)-N-(4-morpholinophenyl)-6-(thiazol-2-yl)quinazolin-2-amine], the IC50 on PDK1 kinase was < 5 µM. Further, in the assay on PC-3 cells, the EC50 is < 5 µM.
With `COc1cc(Nc2ncc3ccc(OC4CCN(C(C)C)CC4)cc3n2)cc(OC)c1` [Compound 565, N-(3,5-dimethoxyphenyl)-7-(1-isopropylpiperidin-4-yloxy)quinazolin-2-amine], the IC50 on PDK1 kinase fell in the range of 5 to 10 µM. Besides, the EC50 with PC-3 cells fell in the range of 5 to 10 µM.
`COc1cc(Nc2ncc3ccc(OC4CCN(C)CC4)cc3n2)cc(OC)c1` [Compound 566, N-(3,5-dimethoxyphenyl)-7-(1-methylpiperidin-4-yloxy)quinazolin-2-amine]: the IC50 at PDK1 kinase was < 5 µM. Also, the EC50 in the assay with PC-3 cells was < 5 µM.
Regarding `Fc1cccc(Nc2ncc3ccc(OC4CCNCC4)cc3n2)c1` [Compound 567, N-(3-fluorophenyl)-7-(piperidin-4-yloxy)quinazolin-2-amine], the IC50 on PDK1 kinase is < 5 µM. The EC50 in the assay on PC-3 cells is < 5 µM.
`Fc1cc(F)cc(Nc2ncc3ccc(OC4CCNCC4)cc3n2)c1` [Compound 568, N-(3,5-difluorophenyl)-7-(piperidin-4-yloxy)quinazolin-2-amine]: on PDK1 kinase, the IC50 is < 5 µM. The EC50 in the assay with PC-3 cells was < 5 µM.
Turning to `FC(F)(F)c1cccc(Nc2ncc3ccc(OC4CCNCC4)cc3n2)c1` [Compound 569, 7-(piperidin-4-yloxy)-N-(3-(trifluoromethyl)phenyl)quinazolin-2-amine], the IC50 at PDK1 kinase was < 5 µM. In the assay with PC-3 cells, the EC50 is < 5 µM.
As to `CS(=O)(=O)c1cccc(Nc2ncc3ccc(OC4CCNCC4)cc3n2)c1` [Compound 570, N-(3-(methylsulfonyl)phenyl)-7-(piperidin-4-yloxy)quinazolin-2-amine], the IC50 at PDK1 kinase was < 5 µM. In the assay on PC-3 cells, the EC50 was < 5 µM.
With `COc1cccc(Nc2ncc3ccc(OC4CCNCC4)cc3n2)c1` [Compound 571, N-(3-methoxyphenyl)-7-(piperidin-4-yloxy)quinazolin-2-amine], on PDK1 kinase, the IC50 is < 5 µM. Also, the EC50 in the assay with PC-3 cells was < 5 µM.
Turning to `c1cc(Nc2ncc3ccc(OC4CCNCC4)cc3n2)cc(N2CCOCC2)c1` [Compound 572, N-(3-morpholinophenyl)-7-(piperidin-4-yloxy)quinazolin-2-amine], the IC50 on PDK1 kinase was < 5 µM. Further, the EC50 in the assay on PC-3 cells was < 5 µM.
As for `CC(C)N1CCC(Oc2ccc3cnc(Nc4cccc(F)c4)nc3c2)CC1` [Compound 573, N-(3-fluorophenyl)-7-(1-isopropylpiperidin-4-yloxy)quinazolin-2-amine], the IC50 at PDK1 kinase is < 5 µM. The EC50 with PC-3 cells fell in the range of 5 to 10 µM.
In the case of `CC(C)N1CCC(Oc2ccc3cnc(Nc4cc(F)cc(F)c4)nc3c2)CC1` [Compound 574, N-(3,5-difluorophenyl)-7-(1-isopropylpiperidin-4-yloxy)quinazolin-2-amine], at PDK1 kinase, the IC50 is < 5 µM. In addition, the EC50 in the assay with PC-3 cells is < 5 µM.
With `CC(C)N1CCC(Oc2ccc3cnc(Nc4cccc(C(F)(F)F)c4)nc3c2)CC1` [Compound 575, 7-(1-isopropylpiperidin-4-yloxy)-N-(3-(trifluoromethyl)phenyl)quinazolin-2-amine], the IC50 on PDK1 kinase was < 5 µM. Besides, the EC50 in the assay with PC-3 cells is < 5 µM.
As to `COc1cccc(Nc2ncc3ccc(OC4CCN(C(C)C)CC4)cc3n2)c1` [Compound 576, 7-(1-isopropylpiperidin-4-yloxy)-N-(3-methoxyphenyl)quinazolin-2-amine], the IC50 at PDK1 kinase was < 5 µM. The EC50 in the assay with PC-3 cells fell in the range of 5 to 10 µM.
Turning to `CC(C)N1CCC(Oc2ccc3cnc(Nc4ccc5nn[nH]c5c4)nc3c2)CC1` [Compound 577, N-(1H-benzo[d][1,2,3]triazol-6-yl)-7-(1-isopropylpiperidin-4-yloxy)quinazolin-2-amine], the IC50 at PDK1 kinase is < 5 µM. The EC50 with PC-3 cells was 5 to 10 µM.
Turning to `CC(C)N1CCC(Oc2ccc3cnc(Nc4cccc(N5CCCC5)c4)nc3c2)CC1` [Compound 579, 7-(1-isopropylpiperidin-4-yloxy)-N-(3-(pyrrolidin-1-yl)phenyl)quinazolin-2-amine], the IC50 at PDK1 kinase was < 5 µM. Also, the EC50 in the assay with PC-3 cells lay in the range of 5 to 10 µM.
